Laboratory results: patent US20260055077A1, “PROTEIN DEGRADATION AGENT” (SUZHOU KINTOR PHARMACEUTICALS, INC., priority 2022, published 2026)

Tested on: HL60 cells
Assay: Anti-proliferation ability of compounds on HL60 cells (CellTiter-Glo)
Assay type: cell-based
Conditions: Homo sapiens, HL-60, 72 h, incubated 3 days, CTG luminescence, IC50 calculated by XLfit
Method: • I. Anti-proliferation ability of compounds on HL60 cells • Activity test methods: • 1. Cell plating • HL60 cells in the logarithmic growth phase were counted and plated evenly in a 96-well transparent bottom white plate at 20000 cells per well and […] per well. • 2. Drug addition to cells • A certain amount of the compounds was weighed and diluted with DMSO to a 10 mM stock solution. The culture mediums corresponding to the cells were taken, and the drugs were diluted to the concentration required by the test, shaken gently and mixed evenly. 50 μl of the gradient dilution of the diluted compound was added to each well of the plated cells, and 50 μl of 0.1% DMSO was added to the control group. The plate was shaken gently, mixed evenly and incubated in a cell culture incubator for 3 days. • 3. CTG detection • 3.1 The CellTiter-Glo™ (CTG) reagent was taken in advance from the −20° C. refrigerator and equilibrated to room temperature in the dark. • 3.2 The 96-well plate was taken out and inspected under a microscope for growth situation. • 3.3 The bottom of the 96-well plate was tagged with white paper, and then the plate was wrapped with tin foil paper, shaken at 37° C. at 300 r for 10 mina and mixed evenly. • 3.4 50 ul of CTG detection reagent was added to each well, Luminescence signal was detected using a microplate reader, and the inhibition rate was calculated. IC50 values of the compounds were calculated by XLfit software to evaluate the proliferation inhibitory activity on 11160 cells.

For `O=C1CCC(N2Cc3cc(C(=O)NCc4ccc(CN(CCO)CCc5ccccc5)cc4)ccc3C2=O)C(=O)N1` (stereo not shown) [KT-001], which IC50 is on record?
Its IC50 is less than 3.04 nM.

How did the IC50 turn out when `O=C1CCC(N2Cc3cc(C(=O)NCc4ccc(CN(CCO)CCc5ccc(Cl)c(Cl)c5)cc4)ccc3C2=O)C(=O)N1` (stereo not shown) [KT-002] was run?
Its IC50 is less than 3.04 nM.

`O=C1CCC(N2Cc3cc(C(=O)NCc4ccc(CN(CCO)CCc5cccc6ccccc56)cc4)ccc3C2=O)C(=O)N1` (stereo not shown) [KT-003] was tested. Which IC50 did it give?
Its IC50 is 0.71 ± 0.04 nM.

`O=C(Cn1c2ccccc2c2cccnc21)NCc1ccc(CNC(=O)c2ccc3c(c2)CN(C2CCC(=O)NC2=O)C3=O)c(OCCO)c1` (stereo not shown) [KT-006] was tested. Which IC50 did it give?
Its IC50 is 2.19 ± 1.5 nM.

How did the IC50 turn out when `CN(Cc1ccc(C(=O)NCc2ccc3c(c2)CN(C2CCC(=O)NC2=O)C3=O)cc1)CC(O)c1ccccc1` (stereo not shown) [KT-013] was run?
Its IC50 is 3.45 ± 0.52 nM.

For `O=C1CCC(N2Cc3cc(C(=O)NCc4ccc(CN(CCc5ccccc5)C(=O)NCCO)cc4)ccc3C2=O)C(=O)N1` (stereo not shown) [KT-015], which IC50 is on record?
Its IC50 is 24.2 ± 10.1 nM.

Which IC50 does the source give for `O=C1CCC(N2Cc3cc(C(=O)NCc4ccc(CN(Cc5ccccc5)C(=O)CO)cc4)ccc3C2=O)C(=O)N1` (stereo not shown) [KT-016] here?
Its IC50 is 3.04 ± 0.84 nM.

Which IC50 does the source give for `O=C1CCC(N2Cc3cc(CNC(=O)c4ccc(CN5CCN(c6ccc(O)c(Cl)c6)CC5)cc4)ccc3C2=O)C(=O)N1` (stereo not shown) [KT-017] here?
Its IC50 is 10.5 ± 0.4 nM.

For `O=C1CCC(N2Cc3cc(CNC(=O)c4ccc(CN5CCN(c6ccc(CO)c(Cl)c6)CC5)cc4)ccc3C2=O)C(=O)N1` (stereo not shown) [KT-018], which IC50 is on record?
Its IC50 is 2.17 ± 0.78 nM.

`O=C1CCC(N2Cc3cc(CNC(=O)c4ccc(CN5CCN(c6ccc(OCCO)c(Cl)c6)CC5)cc4)ccc3C2=O)C(=O)N1` (stereo not shown) [KT-019] was tested. Which IC50 did it give?
Its IC50 is 2.8 ± 0.1 nM.

`Cc1ccc(N2CCN(Cc3ccc(C(=O)NCc4ccc5c(c4)CN(C4CCC(=O)NC4=O)C5=O)c(O)c3)CC2)cc1Cl` (stereo not shown) [KT-020] was tested. Which IC50 did it give?
Its IC50 is 1.36 ± 0.67 nM.

For `Cc1ccc(N2CCN(Cc3ccc(C(=O)NCc4ccc5c(c4)CN(C4CCC(=O)NC4=O)C5=O)cc3)C(CO)C2)cc1Cl` (stereo not shown) [KT-022], which IC50 is on record?
The IC50 was 1.03 ± 0.19 nM.

How did the IC50 turn out when `O=C1CCC(N2Cc3cc(C(=O)NCc4ccc(CNCCc5cccc6ccccc56)cc4)ccc3C2=O)C(=O)N1` (stereo not shown) [KT-025] was run?
The IC50 was less than 3.04 nM.

For `O=C1CCC(N2Cc3cc(NC(=O)CC4CCN(c5ncc(Br)cc5CO)CC4)ccc3C2=O)C(=O)N1` (stereo not shown) [KT-026], which IC50 is on record?
The IC50 was 23 ± 3 nM.

`O=C1CCC(N2Cc3cc(NC(=O)CC4CCN(c5ncc(-c6cccc7cccnc67)cc5CO)CC4)ccc3C2=O)C(=O)N1` (stereo not shown) [KT-028] was tested. Which IC50 did it give?
The IC50 was less than 0.34 nM.

How did the IC50 turn out when `NCc1cc(-c2cccc3cccnc23)cnc1N1CCC(CC(=O)Nc2ccc3c(c2)CN(C2CCC(=O)NC2=O)C3=O)CC1` (stereo not shown) [KT-029] was run?
Its IC50 is 0.57 ± 0.1 nM.

With `O=C1CCC(N2Cc3cc(NC(=O)CC4CCN(c5ncc(-c6nccc7ccccc67)cc5CO)CC4)ccc3C2=O)C(=O)N1` (stereo not shown) [KT-030] as the molecule, how does the IC50 read?
The IC50 was less than 0.34 nM.

With `O=C1CCC(N2Cc3cc(NC(=O)CC4CCN(c5ncc(-c6cccc7cccnc67)cc5OCCO)CC4)ccc3C2=O)C(=O)N1` (stereo not shown) [KT-031] as the molecule, how does the IC50 read?
The IC50 was less than 0.34 nM.

Which IC50 does the source give for `NCCOc1cc(-c2cccc3cccnc23)cnc1N1CCC(CC(=O)Nc2ccc3c(c2)CN(C2CCC(=O)NC2=O)C3=O)CC1` (stereo not shown) [KT-032] here?
Its IC50 is 5620 nM.

For `O=C1CCC(N2Cc3cc(C(=O)NCc4ccc(CN(CCc5ccccc5)C(=O)CCO)cc4)ccc3C2=O)C(=O)N1` (stereo not shown) [KT-033], which IC50 is on record?
Its IC50 is 6 ± 1.6 nM.

For `CN(CCc1ccccc1)Cc1ccc(C(=O)NCc2ccc3c(c2)CN(C2CCC(=O)NC2=O)C3=O)c(O)c1` (stereo not shown) [KT-034], which IC50 is on record?
The IC50 was 9.9 ± 3 nM.

With `CC(=O)c1ccc(N2CCN(Cc3ccc(C(=O)NCc4ccc5c(c4)CN(C4CCC(=O)NC4=O)C5=O)cc3)CC2)cc1Cl` (stereo not shown) [KT-041] as the molecule, how does the IC50 read?
Its IC50 is less than 3.04 nM.

`O=C1CCC(N2Cc3cc(C(=O)NCc4ccc(CN(CCc5cccc6ccccc56)C(=O)CS)cc4)ccc3C2=O)C(=O)N1` (stereo not shown) [KT-042] was tested. Which IC50 did it give?
Its IC50 is 34 ± 7 nM.

Molecular target: T1, GSPT1 (Homo sapiens, UniProt P15170)
T1 construct: endogenous in cells; host or cells: HL60 (human acute promyelocytic leukemia cells)
T1 sequence (P15170 whole entry): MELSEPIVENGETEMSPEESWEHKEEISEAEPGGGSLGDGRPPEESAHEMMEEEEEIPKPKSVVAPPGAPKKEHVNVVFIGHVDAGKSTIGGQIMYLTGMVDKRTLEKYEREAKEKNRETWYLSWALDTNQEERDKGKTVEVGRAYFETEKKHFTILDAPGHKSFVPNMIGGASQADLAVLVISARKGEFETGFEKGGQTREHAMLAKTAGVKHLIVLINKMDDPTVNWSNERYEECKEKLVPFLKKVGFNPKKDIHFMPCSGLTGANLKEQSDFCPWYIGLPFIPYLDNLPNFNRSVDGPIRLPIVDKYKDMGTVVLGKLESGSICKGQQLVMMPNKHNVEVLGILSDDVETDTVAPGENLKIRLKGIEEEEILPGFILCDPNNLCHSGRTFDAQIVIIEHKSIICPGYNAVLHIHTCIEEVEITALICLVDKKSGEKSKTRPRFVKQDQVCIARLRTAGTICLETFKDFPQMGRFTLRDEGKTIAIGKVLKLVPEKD
Assay: Protein degradation experiment (Western blot), GSPT1 in HL60 cells
Assay type: cell-based
Conditions: 6 h of drug treatment, FIG. 1, at lower concentration (about 3 μm to 10 nmn)
Method: (§1) Cell culture conditions: The cells in the embodiments of the invention were purchased from Shanghai Cell Bank, Chinese Academy of Sciences. Human acute promyelocytic leukemia cells (HL60 cells) were cultured in RPMI-1640 (meilunbio, MA0215)^+20% FBS(manufacturer: Bi, product number: 04-001-1ACS)^+1% penicillin/streptomycin (manufacturer: Hyclone, product number: SH40003.01). The cell culture conditions were 5% CO2 and […]. When the cell coverage reached about 80%, the cells were passaged at a ratio of 1:3.
(§2) 2. Cell drug treatment and protein extraction 2.1 Cell treatment
(§3) The designated cells in the exponential growth phase were digested and plated into a 6-well plate at 1 10^6 cells per well. […]
(§4) By using the BCA protein concentration determination kit (from Thermo Fisher, Cat. No. 23225), the BSA standard determination solution and the supernatant in 2.2 to be tested (the supernatant can be diluted and then tested) were prepared according to the table 2 below. […] The plate was placed at 60′C for 10 min, and then the absorbance at 562 nim was detected. After the reading was recorded, a standard curve was plotted using concentration gradients of the standards, and the absorbance of the samples was substituted to calculate the protein concentration of the samples. […]

With `O=C1CCC(N2Cc3cc(C(=O)NCc4ccc(CN(CCO)CCc5ccc(Cl)c(Cl)c5)cc4)ccc3C2=O)C(=O)N1` (stereo not shown) [KT-002] as the molecule, how does the “degradation of GSPT1 protein in HL60 cells” value read?
Its value is “completely degrade”.

Molecular target: T2, c-Myc (Homo sapiens, UniProt P01106)
T2 construct: endogenous in cells; host or cells: HL60 (human acute promyelocytic leukemia cells)
T2 sequence (P01106 whole entry): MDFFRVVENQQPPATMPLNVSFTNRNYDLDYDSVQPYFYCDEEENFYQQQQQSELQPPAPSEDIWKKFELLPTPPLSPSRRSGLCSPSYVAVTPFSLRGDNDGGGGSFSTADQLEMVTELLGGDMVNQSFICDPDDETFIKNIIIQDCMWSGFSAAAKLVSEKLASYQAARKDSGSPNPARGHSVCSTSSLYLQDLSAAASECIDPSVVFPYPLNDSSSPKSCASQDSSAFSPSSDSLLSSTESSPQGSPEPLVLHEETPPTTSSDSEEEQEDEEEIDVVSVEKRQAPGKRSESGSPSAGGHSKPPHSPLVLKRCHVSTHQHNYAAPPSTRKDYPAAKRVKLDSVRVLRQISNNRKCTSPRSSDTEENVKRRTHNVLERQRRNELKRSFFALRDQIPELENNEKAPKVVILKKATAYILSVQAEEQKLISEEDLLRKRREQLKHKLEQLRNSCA
Assay: Protein degradation experiment (Western blot), c-Myc in HL60 cells
Assay type: cell-based
Conditions: 6 h of drug treatment, FIG. 1, at lower concentration (about 3 μm to 10 nmn)
Method: as §1, §2, §3, §4

Which “degradation of e-Myc (c-Myc) protein in HL60 cells” value does the source give for `O=C1CCC(N2Cc3cc(C(=O)NCc4ccc(CN(CCO)CCc5ccc(Cl)c(Cl)c5)cc4)ccc3C2=O)C(=O)N1` (stereo not shown) [KT-002] here?
Its value is “completely degrade”.
